Test results as given in the CheMixHub viscosity set.
Where “and” joins values, the source holds several entries; their conditions need not be identical. Identical values can stand only once. ± gives the uncertainty stated by the source.

Experiment: xn = mol fraction of the nth substance listed

`CCCCOCCO` + OCCOCCOCCO gave a viscosity (293.15 K, 101 kPa, x1 = 0.048) of 36.14 ± 0.23 mPa·s, a viscosity (293.15 K, 101 kPa, x1 = 0.111) of 30.89 ± 0.2 mPa·s and a viscosity (293.15 K, 101 kPa, x1 = 0.1958) of 25.06 ± 0.15 mPa·s. For the same molecule, the viscosity (293.15 K, 101 kPa, x1 = 0.3023) was 19.11 ± 0.12 mPa·s, the viscosity (293.15 K, 101 kPa, x1 = 0.4053) was 14.62 ± 0.087 mPa·s and the viscosity (293.15 K, 101 kPa, x1 = 0.4492) was 12.94 ± 0.077 mPa·s. The viscosity (293.15 K, 101 kPa, x1 = 0.4988) was 11.29 ± 0.067 mPa·s, the viscosity (293.15 K, 101 kPa, x1 = 0.5502) was 9.833 ± 0.058 mPa·s and the viscosity (293.15 K, 101 kPa, x1 = 0.5922) was 8.791 ± 0.052 mPa·s. The viscosity (293.15 K, 101 kPa, x1 = 0.6915) was 6.755 ± 0.041 mPa·s, the viscosity (293.15 K, 101 kPa, x1 = 0.7959) was 5.249 ± 0.032 mPa·s and the viscosity (293.15 K, 101 kPa, x1 = 0.8902) was 4.37 ± 0.027 mPa·s. It also gave a viscosity (293.15 K, 101 kPa, x1 = 0.9457) of 3.879 ± 0.024 mPa·s, a viscosity (298.15 K, 101 kPa, x1 = 0.0536) of 30.5 ± 0.2 mPa·s and a viscosity (298.15 K, 101 kPa, x1 = 0.1049) of 27.17 ± 0.17 mPa·s. It also gave a viscosity (298.15 K, 101 kPa, x1 = 0.2064) of 21.51 ± 0.13 mPa·s, a viscosity (298.15 K, 101 kPa, x1 = 0.2953) of 17.55 ± 0.11 mPa·s and a viscosity (298.15 K, 101 kPa, x1 = 0.3982) of 13.71 ± 0.082 mPa·s. The viscosity (298.15 K, 101 kPa, x1 = 0.4518) was 12.06 ± 0.072 mPa·s, the viscosity (298.15 K, 101 kPa, x1 = 0.5018) was 10.7 ± 0.064 mPa·s and the viscosity (298.15 K, 101 kPa, x1 = 0.5494) was 9.463 ± 0.056 mPa·s. For the same molecule, the viscosity (298.15 K, 101 kPa, x1 = 0.5998) was 8.336 ± 0.05 mPa·s, the viscosity (298.15 K, 101 kPa, x1 = 0.6966) was 6.451 ± 0.039 mPa·s and the viscosity (298.15 K, 101 kPa, x1 = 0.7997) was 4.971 ± 0.031 mPa·s. The viscosity (298.15 K, 101 kPa, x1 = 0.8916) was 3.873 ± 0.024 mPa·s, the viscosity (298.15 K, 101 kPa, x1 = 0.9411) was 3.369 ± 0.021 mPa·s and the viscosity (303.15 K, 101 kPa, x1 = 0.0501) was 26.39 ± 0.17 mPa·s. The viscosity (303.15 K, 101 kPa, x1 = 0.1015) was 23.75 ± 0.15 mPa·s, the viscosity (303.15 K, 101 kPa, x1 = 0.197) was 19.42 ± 0.12 mPa·s and the viscosity (303.15 K, 101 kPa, x1 = 0.3006) was 15.59 ± 0.095 mPa·s. For the same molecule, the viscosity (303.15 K, 101 kPa, x1 = 0.4006) was 12.58 ± 0.076 mPa·s, the viscosity (303.15 K, 101 kPa, x1 = 0.4531) was 11.14 ± 0.067 mPa·s and the viscosity (303.15 K, 101 kPa, x1 = 0.4972) was 10.12 ± 0.061 mPa·s. For the same molecule, the viscosity (303.15 K, 101 kPa, x1 = 0.5469) was 8.986 ± 0.054 mPa·s, the viscosity (303.15 K, 101 kPa, x1 = 0.6012) was 7.888 ± 0.047 mPa·s and the viscosity (303.15 K, 101 kPa, x1 = 0.6893) was 6.343 ± 0.039 mPa·s. The viscosity (303.15 K, 101 kPa, x1 = 0.803) was 4.661 ± 0.029 mPa·s, the viscosity (303.15 K, 101 kPa, x1 = 0.89) was 3.59 ± 0.022 mPa·s and the viscosity (303.15 K, 101 kPa, x1 = 0.9416) was 3.02 ± 0.019 mPa·s.
Work on `[Cl-].[Cl-].[Mg+2]` + O yielded a viscosity (293.15 K, 101.3 kPa, x1 = 0.0009) of 1.025 ± 0.022 mPa·s, a viscosity (293.15 K, 101.3 kPa, x1 = 0.0018) of 1.046 ± 0.022 mPa·s and a viscosity (293.15 K, 101.3 kPa, x1 = 0.00893) of 1.219 ± 0.026 mPa·s. It also gave a viscosity (293.15 K, 101.3 kPa, x1 = 0.0177) of 1.475 ± 0.031 mPa·s, a viscosity (293.15 K, 101.3 kPa, x1 = 0.03478) of 2.199 ± 0.047 mPa·s and a viscosity (293.15 K, 101.3 kPa, x1 = 0.05127) of 3.332 ± 0.071 mPa·s. The viscosity (293.15 K, 101.3 kPa, x1 = 0.06722) was 5.271 ± 0.11 mPa·s, the viscosity (293.15 K, 101.3 kPa, x1 = 0.08263) was 9.001 ± 0.19 mPa·s and the viscosity (298.15 K, 101 kPa, x1 = 0.0944) was 13.8 ± 0.4 mPa·s. For the same molecule, the viscosity (298.15 K, 101.3 kPa, x1 = 0.0009) was 0.911 ± 0.019 mPa·s, the viscosity (298.15 K, 101.3 kPa, x1 = 0.0018) was 0.9296 ± 0.02 mPa·s and 0.936 ± 0.038 mPa·s and the viscosity (298.15 K, 101.3 kPa, x1 = 0.0045) was 0.988 ± 0.04 mPa·s. It also gave a viscosity (298.15 K, 101.3 kPa, x1 = 0.0089) of 1.075 ± 0.043 mPa·s, a viscosity (298.15 K, 101.3 kPa, x1 = 0.00893) of 1.085 ± 0.023 mPa·s and a viscosity (298.15 K, 101.3 kPa, x1 = 0.0177) of 1.314 ± 0.028 mPa·s. It also gave a viscosity (298.15 K, 101.3 kPa, x1 = 0.03478) of 1.95 ± 0.041 mPa·s, a viscosity (298.15 K, 101.3 kPa, x1 = 0.05127) of 2.937 ± 0.063 mPa·s and a viscosity (298.15 K, 101.3 kPa, x1 = 0.06722) of 4.603 ± 0.098 mPa·s. For the same molecule, the viscosity (298.15 K, 101.3 kPa, x1 = 0.08263) was 7.752 ± 0.17 mPa·s, the viscosity (303.15 K, 101.3 kPa, x1 = 0.0009) was 0.8162 ± 0.017 mPa·s and the viscosity (303.15 K, 101.3 kPa, x1 = 0.0018) was 0.8329 ± 0.018 mPa·s. For the same molecule, the viscosity (303.15 K, 101.3 kPa, x1 = 0.00893) was 0.9729 ± 0.021 mPa·s, the viscosity (303.15 K, 101.3 kPa, x1 = 0.0177) was 1.179 ± 0.025 mPa·s and the viscosity (303.15 K, 101.3 kPa, x1 = 0.03478) was 1.747 ± 0.037 mPa·s. The viscosity (303.15 K, 101.3 kPa, x1 = 0.05127) was 2.616 ± 0.055 mPa·s, the viscosity (303.15 K, 101.3 kPa, x1 = 0.06722) was 4.064 ± 0.087 mPa·s and the viscosity (303.15 K, 101.3 kPa, x1 = 0.08263) was 6.761 ± 0.14 mPa·s. The viscosity (308.15 K, 101.3 kPa, x1 = 0.0009) was 0.7364 ± 0.016 mPa·s, the viscosity (308.15 K, 101.3 kPa, x1 = 0.0018) was 0.7517 ± 0.016 mPa·s and 0.759 ± 0.031 mPa·s and the viscosity (308.15 K, 101.3 kPa, x1 = 0.0045) was 0.798 ± 0.032 mPa·s. The viscosity (308.15 K, 101.3 kPa, x1 = 0.0089) was 0.867 ± 0.035 mPa·s, the viscosity (308.15 K, 101.3 kPa, x1 = 0.00893) was 0.8788 ± 0.019 mPa·s and the viscosity (308.15 K, 101.3 kPa, x1 = 0.0177) was 1.065 ± 0.023 mPa·s. The viscosity (308.15 K, 101.3 kPa, x1 = 0.03478) was 1.574 ± 0.033 mPa·s, the viscosity (308.15 K, 101.3 kPa, x1 = 0.05127) was 2.346 ± 0.05 mPa·s and the viscosity (308.15 K, 101.3 kPa, x1 = 0.06722) was 3.615 ± 0.077 mPa·s. For the same molecule, the viscosity (308.15 K, 101.3 kPa, x1 = 0.08263) was 5.951 ± 0.13 mPa·s, the viscosity (318.15 K, 101.3 kPa, x1 = 0.0009) was 0.6104 ± 0.013 mPa·s and the viscosity (318.15 K, 101.3 kPa, x1 = 0.0018) was 0.629 ± 0.025 mPa·s. The viscosity (318.15 K, 101.3 kPa, x1 = 0.0045) was 0.662 ± 0.027 mPa·s, the viscosity (318.15 K, 101.3 kPa, x1 = 0.0089) was 0.72 ± 0.029 mPa·s and the viscosity (318.15 K, 101.3 kPa, x1 = 0.00893) was 0.7293 ± 0.015 mPa·s. For the same molecule, the viscosity (318.15 K, 101.3 kPa, x1 = 0.0177) was 0.8849 ± 0.019 mPa·s, the viscosity (318.15 K, 101.3 kPa, x1 = 0.03478) was 1.302 ± 0.027 mPa·s and the viscosity (318.15 K, 101.3 kPa, x1 = 0.05127) was 1.926 ± 0.041 mPa·s. It also gave a viscosity (318.15 K, 101.3 kPa, x1 = 0.06722) of 2.926 ± 0.062 mPa·s and a viscosity (318.15 K, 101.3 kPa, x1 = 0.08263) of 4.726 ± 0.1 mPa·s.
In the case of `CCCCOCCO` + CCC(C)=O, the viscosity (298.15 K, 101 kPa, x2 = 0.154) is reported as 2.106 ± 0.015 mPa·s, the viscosity (298.15 K, 101 kPa, x2 = 0.2906) is reported as 1.609 ± 0.011 mPa·s and the viscosity (298.15 K, 101 kPa, x2 = 0.4126) is reported as 1.234 ± 0.009 mPa·s. For the same molecule, the viscosity (298.15 K, 101 kPa, x2 = 0.5221) was 0.939 ± 0.007 mPa·s, the viscosity (298.15 K, 101 kPa, x2 = 0.6211) was 0.727 ± 0.005 mPa·s and the viscosity (298.15 K, 101 kPa, x2 = 0.7108) was 0.607 ± 0.004 mPa·s. It also gave a viscosity (298.15 K, 101 kPa, x2 = 0.7927) of 0.519 ± 0.004 mPa·s, a viscosity (298.15 K, 101 kPa, x2 = 0.8676) of 0.466 ± 0.003 mPa·s and a viscosity (298.15 K, 101 kPa, x2 = 0.9365) of 0.416 ± 0.003 mPa·s.
Work on `C[N+](C)(C)CCO.O=C([O-])c1ccccn1` + O yielded a viscosity (300 K, 100 kPa, x2 = 0.5) of 232.8 ± 14 mPa·s, a viscosity (300 K, 100 kPa, x2 = 0.68) of 35.3 ± 0.7 mPa·s and a viscosity (300 K, 100 kPa, x2 = 0.81) of 16.4 ± 0.2 mPa·s.
